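Method: 48-hour compound exposure of cells in 96-well plates, five concentrations, linear interpolation of endpoints. At the GI50, growth is halved. TGI: concentration producing complete growth inhibition.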
Legend:
Assay in all cases: NCI tumour cell line growth inhibition, 48 h
BT-549 breast = tested on: BT-549 breast
NCI-H23 lung = tested on: NCI-H23 lung
HCT-15 colon = tested on: HCT-15 colon
MDA-MB-435 = tested on: MDA-MB-435
A498 renal = tested on: A498 renal
NCI-H226 lung = tested on: NCI-H226 lung
K-562 leukemia = tested on: K-562 leukemia
786-0 renal = tested on: 786-0 renal
RXF 393 renal = tested on: RXF 393 renal
SK-OV-3 ovarian = tested on: SK-OV-3 ovarian

| Compound | TGI (BT-549 breast) | TGI (NCI-H23 lung) | TGI (HCT-15 colon) | TGI (MDA-MB-435) | TGI (A498 renal) | TGI (NCI-H226 lung) | TGI (K-562 leukemia) | TGI (786-0 renal) | TGI (RXF 393 renal) | TGI (SK-OV-3 ovarian) | GI50 (BT-549 breast) | GI50 (NCI-H23 lung) | GI50 (SK-OV-3 ovarian) | GI50 (HCT-15 colon) | GI50 (MDA-MB-435) | GI50 (A498 renal) | GI50 (NCI-H226 lung) | GI50 (K-562 leukemia) | GI50 (RXF 393 renal) |
| --- | --- | --- | --- | --- | --- | --- | --- | --- | --- | --- | --- | --- | --- | --- | --- | --- | --- | --- | --- |
| CCOC(=O)C1CCCN1C(=O)c1ccccc1Cl (configuration not stated) | > 100 µM | > 100 µM | > 100 µM | > 100 µM | > 100 µM | > 100 µM | > 100 µM | > 100 µM | > 100 µM |  |  |  |  |  |  |  |  |  |  |
| CSc1c(C)n([O-])c2cc(Cl)c(Cl)cc2[n+]1=O | 32.7 µM | 31.8 µM | 49.6 µM | 36.7 µM | 61.6 µM | 27.1 µM | 11.1 µM | 33.2 µM | 45.6 µM | > 100 µM |  |  |  |  |  |  |  |  |  |
| Cc1nccn1S(=O)(=O)c1ccc(Cl)cc1 | > 100 µM | > 100 µM | > 100 µM | 48.8 µM | > 100 µM | > 100 µM | > 100 µM | > 100 µM | > 100 µM | > 100 µM |  |  |  |  |  |  |  |  |  |
| COC(=O)/C=C\C(C#N)(C#N)N=Cc1ccc(Br)cc1 | 25.2 µM | 49.5 µM | 11.8 µM | 22.4 µM | 29.8 µM | 20.6 µM | > 100 µM | > 48.9 µM | 17.8 µM | 33.6 µM |  |  |  |  |  |  |  |  |  |
| O=C1c2cc3ncsc3cc2C(=O)c2c(O)ccc(O)c21 | > 100 µM | > 100 µM | > 100 µM | > 100 µM | > 100 µM | > 100 µM | > 100 µM | > 100 µM | > 100 µM |  |  |  |  |  |  |  |  |  |  |
| C=C1CC(O)C2C(=C)C(=O)OC2C2C(C)C(=O)CC12 (configuration not stated) | 21.5 µM | 31.8 µM | 17.1 µM | 33.1 µM | 63.3 µM |  | 28.7 µM |  | 17.4 µM | > 100 µM |  |  |  |  |  |  |  |  |  |
| CCCCOc1ccc(S(=O)(=O)/N=C(\NO)Nc2ccc(Cl)cc2)cc1 | 26.7 µM | 29.4 µM | 30.4 µM | 30.6 µM | 26.7 µM | 43.4 µM | 41.2 µM | 29.2 µM | 30.2 µM |  |  |  |  |  |  |  |  |  |  |
| COc1ccc(S(=O)(=O)Nc2cc(Sc3cccc4cccnc34)c(O)c3ccccc23)cc1 | 16.9 µM | 10.8 µM | 8.23 µM | 13.2 µM | 16.5 µM | 19.9 µM | 11.2 µM |  | 6.33 µM | 14.4 µM | 2.65 µM | 1.46 µM | 3.59 µM | 0.477 µM | 2.2 µM | 2.27 µM | 2.28 µM | 0.926 µM | 1.24 µM |
| COc1ccc(/C=C(/c2ccc(OC)cc2)c2c(Cl)cc(Cl)c(/C(=C\c3ccc(OC)cc3)c3ccc(OC)cc3)c2N=Nc2ccccc2)cc1 | > 100 µM | > 100 µM | > 100 µM | > 100 µM | > 100 µM |  | > 100 µM | > 100 µM | > 100 µM | > 100 µM |  |  |  |  |  |  |  |  |  |
| COC(=O)C(CNC(=O)/C=C/c1ccc(OC(C)=O)c(OC(C)=O)c1)NC(=O)/C=C/c1ccc(OC(C)=O)c(OC(C)=O)c1 (configuration not stated) | > 100 µM | > 100 µM | > 100 µM | > 100 µM | > 100 µM | > 100 µM | > 100 µM | > 100 µM | > 100 µM | > 100 µM |  |  |  |  |  |  |  |  |  |
| CC1CN=C(c2ccc(CN3CCC(CCCC4CCN(Cc5ccc(C6=NCC(C)N6)cc5)CC4)CC3)cc2)N1 (configuration not stated) | > 100 µM | > 100 µM | > 100 µM | 36.7 µM | > 100 µM | > 100 µM | > 100 µM | > 100 µM | > 100 µM | > 100 µM |  |  |  |  |  |  |  |  |  |
| CNC(=O)C1OC(n2cnc3c(NCc4cccc(I)c4)nc(Cl)nc32)C(O)C1O (configuration not stated) | 28.5 µM | 25.5 µM | 20.4 µM | 27 µM | 33.7 µM | 23 µM | > 100 µM | 46.8 µM | 29.6 µM | 35 µM |  |  |  |  |  |  |  |  |  |
| Cc1ccc(C)c2c1n1c(=O)n(C)c(=O)n21 | > 100 µM | > 100 µM | > 100 µM | > 100 µM | > 100 µM | > 100 µM |  | > 100 µM | > 100 µM | > 100 µM |  |  |  |  |  |  |  |  |  |
| Cc1cc(OCc2nnc3n2N=C(c2cc(F)c(Cl)cc2Cl)/C(=C/c2ccc(-c4ccc(Cl)cc4)o2)S3)ccc1Cl | > 50 µM | > 50 µM | > 50 µM | > 50 µM | > 50 µM | > 50 µM | > 50 µM | > 50 µM | > 50 µM |  |  |  |  |  |  |  |  |  |  |
| O=c1[nH]c2ccc(C(F)(F)F)cc2nc1C(F)(F)F | 89.8 µM | 46.9 µM | > 100 µM | 78.8 µM | 87.5 µM | 89 µM | > 100 µM | > 100 µM | 36.3 µM | 85.7 µM |  |  |  |  |  |  |  |  |  |
| NS(=O)(=O)c1ccc(NCc2nc3ccccc3[nH]2)cc1 | > 100 µM | > 100 µM | > 100 µM | > 100 µM | > 100 µM | > 100 µM |  | > 100 µM | > 100 µM | > 100 µM |  |  |  |  |  |  |  |  |  |
| CCOC(=O)CCC(NC(=O)c1ccc(Nc2nc3ccccc3nc2C(=O)OCC)s1)C(=O)OCC (configuration not stated) | > 100 µM |  | > 100 µM | > 100 µM | > 100 µM | > 100 µM | > 100 µM | > 100 µM | > 100 µM | > 100 µM |  |  |  |  |  |  |  |  |  |
| CC(C)(C)OC(=O)NNCC(O)COc1ccccc1 (configuration not stated) | > 100 µM | > 100 µM | > 100 µM | > 100 µM | > 100 µM | > 100 µM | > 100 µM | > 100 µM | > 100 µM | > 100 µM |  |  |  |  |  |  |  |  |  |
| NNS(=O)(=O)c1ccc(/C=C2\NC(=O)NC2=O)cc1 | > 100 µM | > 100 µM | > 100 µM | > 100 µM | > 100 µM | > 100 µM | > 100 µM | > 100 µM |  | > 100 µM |  |  |  |  |  |  |  |  |  |
